The values below come from ChEMBL document CHEMBL1130094, “Structure-activity relationships for a novel series of pyrido[2,3-d]pyrimidine tyrosine kinase inhibitors” (J Med Chem, 1997).

The target in series [1] is T1, Platelet-derived growth factor receptor (PDGFr) (Rattus norvegicus, UniProt P20786+Q05030). As to the kind of experiment: Inhibition of Platelet-derived growth factor receptor (PDGFr) tyrosine kinase in rat aortic vascular smooth muscle cells (RAVSMCs).
The target of series [2] is T2, Fibroblast growth factor receptor (Homo sapiens, UniProt P22607+P11362+P22455+P21802). In words: Inhibition of Fibroblast growth factor receptor (FGFr) tyrosine kinase. The class given is protein assay.
For series [3], the target named is T1, Platelet-derived growth factor receptor (PDGFr). As to the kind of experiment: Inhibition of platelet derived growth factor (PDGF) stimulated PDGF-receptor autophosphorylation in rat aortic vascular smooth muscle cells (RAVSMCs).
The target of a further series is Insulin receptor (Homo sapiens, UniProt P06213). As to the kind of experiment: Inhibition of insulin receptor (InsR) tyrosine kinase.
Sequence of Insulin receptor (P06213 28-758 limits assumed): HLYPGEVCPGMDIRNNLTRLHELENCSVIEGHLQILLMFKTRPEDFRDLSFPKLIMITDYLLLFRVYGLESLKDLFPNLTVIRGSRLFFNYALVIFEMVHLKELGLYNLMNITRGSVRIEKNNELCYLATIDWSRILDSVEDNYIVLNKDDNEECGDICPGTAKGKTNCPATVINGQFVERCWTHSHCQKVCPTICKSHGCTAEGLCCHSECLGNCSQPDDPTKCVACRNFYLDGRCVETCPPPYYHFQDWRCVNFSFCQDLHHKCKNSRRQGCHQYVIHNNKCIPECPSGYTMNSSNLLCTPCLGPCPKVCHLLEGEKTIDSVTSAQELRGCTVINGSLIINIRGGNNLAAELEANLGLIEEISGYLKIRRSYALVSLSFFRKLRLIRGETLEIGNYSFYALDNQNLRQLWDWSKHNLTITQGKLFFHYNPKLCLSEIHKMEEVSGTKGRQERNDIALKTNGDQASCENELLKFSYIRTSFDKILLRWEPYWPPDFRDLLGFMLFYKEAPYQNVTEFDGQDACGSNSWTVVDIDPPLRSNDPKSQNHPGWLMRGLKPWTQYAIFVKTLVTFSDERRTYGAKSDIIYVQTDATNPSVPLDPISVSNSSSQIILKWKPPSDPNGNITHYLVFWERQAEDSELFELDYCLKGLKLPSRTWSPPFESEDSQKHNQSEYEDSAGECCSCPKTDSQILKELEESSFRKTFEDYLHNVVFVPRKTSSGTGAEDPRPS
Sequence of Insulin receptor (P06213 763-1382 limits assumed): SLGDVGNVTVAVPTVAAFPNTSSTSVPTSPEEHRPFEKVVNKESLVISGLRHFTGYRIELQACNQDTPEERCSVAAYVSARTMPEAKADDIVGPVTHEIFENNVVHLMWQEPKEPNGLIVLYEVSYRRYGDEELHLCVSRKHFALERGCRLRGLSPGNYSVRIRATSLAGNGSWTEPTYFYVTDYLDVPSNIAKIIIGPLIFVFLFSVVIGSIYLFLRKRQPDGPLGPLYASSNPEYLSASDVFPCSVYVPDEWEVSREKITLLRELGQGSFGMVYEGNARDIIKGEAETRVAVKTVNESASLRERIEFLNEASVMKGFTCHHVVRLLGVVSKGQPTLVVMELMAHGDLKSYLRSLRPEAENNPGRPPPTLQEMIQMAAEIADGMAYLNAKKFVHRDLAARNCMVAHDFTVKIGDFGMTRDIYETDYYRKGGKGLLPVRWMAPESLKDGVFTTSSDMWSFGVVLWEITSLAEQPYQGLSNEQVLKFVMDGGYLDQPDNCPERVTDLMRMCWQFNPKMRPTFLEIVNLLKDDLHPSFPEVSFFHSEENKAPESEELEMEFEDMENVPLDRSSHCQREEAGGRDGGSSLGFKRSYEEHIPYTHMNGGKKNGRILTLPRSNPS
The target in series [4] is T3, Epidermal growth factor receptor (Homo sapiens, UniProt P00533). As to the kind of experiment: Inhibition of Epidermal growth factor receptor (EGFr) tyrosine kinase.
T3 sequence (P00533 whole entry): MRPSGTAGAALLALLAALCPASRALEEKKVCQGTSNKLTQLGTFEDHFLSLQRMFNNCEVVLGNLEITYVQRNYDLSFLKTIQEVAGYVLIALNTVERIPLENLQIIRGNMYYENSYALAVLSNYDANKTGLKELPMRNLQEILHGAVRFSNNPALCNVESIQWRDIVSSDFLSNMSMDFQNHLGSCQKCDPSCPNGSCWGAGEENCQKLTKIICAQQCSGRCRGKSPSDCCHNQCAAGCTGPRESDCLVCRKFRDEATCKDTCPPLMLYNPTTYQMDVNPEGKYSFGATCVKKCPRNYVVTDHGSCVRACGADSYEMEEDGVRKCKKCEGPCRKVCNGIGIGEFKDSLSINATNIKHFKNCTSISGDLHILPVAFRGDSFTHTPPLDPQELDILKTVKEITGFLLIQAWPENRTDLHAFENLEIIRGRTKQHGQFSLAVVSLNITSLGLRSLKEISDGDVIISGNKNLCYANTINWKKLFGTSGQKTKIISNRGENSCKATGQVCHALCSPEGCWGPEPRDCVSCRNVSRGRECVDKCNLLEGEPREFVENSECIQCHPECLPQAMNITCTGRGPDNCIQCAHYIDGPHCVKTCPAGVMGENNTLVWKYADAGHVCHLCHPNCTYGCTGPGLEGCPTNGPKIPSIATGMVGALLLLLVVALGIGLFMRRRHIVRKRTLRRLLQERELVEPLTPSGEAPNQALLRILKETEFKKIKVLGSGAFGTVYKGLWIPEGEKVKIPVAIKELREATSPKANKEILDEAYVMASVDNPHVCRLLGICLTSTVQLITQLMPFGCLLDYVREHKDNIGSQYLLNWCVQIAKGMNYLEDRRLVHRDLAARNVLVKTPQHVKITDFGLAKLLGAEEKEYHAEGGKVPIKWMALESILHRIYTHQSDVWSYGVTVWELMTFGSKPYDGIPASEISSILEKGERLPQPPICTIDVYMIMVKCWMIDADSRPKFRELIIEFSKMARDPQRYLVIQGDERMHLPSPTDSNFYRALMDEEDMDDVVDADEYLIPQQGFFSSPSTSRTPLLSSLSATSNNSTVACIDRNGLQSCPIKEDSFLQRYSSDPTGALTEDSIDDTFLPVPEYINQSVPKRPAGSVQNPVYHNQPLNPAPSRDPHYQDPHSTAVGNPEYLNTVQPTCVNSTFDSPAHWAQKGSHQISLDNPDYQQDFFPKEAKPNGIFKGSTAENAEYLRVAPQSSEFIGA
A short description of series [5]: Inhibition of vascular smooth muscle cell (VSMC) proliferation at day 8. The format is functional. Conditions: Rattus norvegicus, 192 h.
For series [6], the target named is Proto-oncogene tyrosine-protein kinase Src (Homo sapiens, UniProt P12931). In words: Inhibition of C-src tyrosine kinase.
Sequence of Proto-oncogene tyrosine-protein kinase Src (P12931 2-536 limits assumed): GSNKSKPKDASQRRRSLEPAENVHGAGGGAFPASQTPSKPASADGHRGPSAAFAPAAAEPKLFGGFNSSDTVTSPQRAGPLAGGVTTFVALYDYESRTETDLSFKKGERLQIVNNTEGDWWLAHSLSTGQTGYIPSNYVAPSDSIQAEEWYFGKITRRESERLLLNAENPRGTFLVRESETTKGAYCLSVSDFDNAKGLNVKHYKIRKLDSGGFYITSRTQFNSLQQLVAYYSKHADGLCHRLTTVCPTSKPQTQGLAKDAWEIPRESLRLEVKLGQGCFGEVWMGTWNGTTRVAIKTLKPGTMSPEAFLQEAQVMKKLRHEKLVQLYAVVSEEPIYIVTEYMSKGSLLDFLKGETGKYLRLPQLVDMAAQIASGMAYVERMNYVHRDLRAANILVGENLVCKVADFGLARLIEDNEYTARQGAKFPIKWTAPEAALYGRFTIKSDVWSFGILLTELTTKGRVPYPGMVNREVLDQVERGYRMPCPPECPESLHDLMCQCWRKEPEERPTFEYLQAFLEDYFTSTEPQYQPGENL
Series [7] can be described thus: The half life in rat plasma after intravenous administration. The class given is ADME, organism-based.
The target in series [8] is T2, Fibroblast growth factor receptor. As to the kind of experiment: Inhibition of fibroblast growth factor receptor (FGFr) tyrosine kinase. The format is protein assay.
For series [9], the target named is T3, Epidermal growth factor receptor. As to the kind of experiment: Inhibition of epidermal growth factor receptor (EGFr) tyrosine kinase.

Take `CCN(CC)CCCNc1ncc2cc(-c3c(Cl)cccc3Cl)c(NC(=O)NC(C)(C)C)nc2n1`: the IC50 in series [1] was 660 nM; in series [2] it was 82 nM; in series [3] it was 1800 nM; on Insulin receptor, over 50000 nM; in [4], 6200 nM.

Compound `COc1cc(OC)cc(-c2cc3cnc(N)nc3nc2NC(=O)NC(C)(C)C)c1` registered an IC50 in series [2] of 60 nM.

Take `CCNC(=O)Nc1nc2nc(NCCCCN(CC)CC)ncc2cc1-c1c(Cl)cccc1Cl`: the IC50 in series [1] came out at 190 nM; in series [3], 250 nM.

In the case of `CCNC(=O)Nc1nc2nc(N)ncc2cc1-c1c(Cl)cccc1Cl`, the IC50 was 1300 nM in [1]; 130 nM in series [2]; 3730 nM in [3]; over 50000 nM at Insulin receptor; 1360 nM in [4].

`CCN(CC)CCCCNc1ncc2cc(-c3c(Cl)cccc3Cl)c(NC(=O)NC(C)(C)C)nc2n1`: the IC50 in [1] is 310 nM; in series [5] it was 300 nM; in [3], 450 nM; against Insulin receptor it was over 50000 nM; in series [6], 44 nM.

In the case of `Cc1cc(C)c(C)c(-c2cc3cnc(N)nc3nc2NC(=O)NC(C)(C)C)c1C`, the 50% inhibitory concentration (IC50) (in [1]; in [3]; against Insulin receptor; in series [6]) was over 50000 nM throughout.

For the compound `Cc1cccc(C)c1-c1cc2cnc(N)nc2nc1NC(=O)NC(C)(C)C`, the IC50 in series [2] is 400 nM; against Insulin receptor it was over 50000 nM; in series [4] it was 610 nM.

For the compound `CN1CCN(CCCNc2ncc3cc(-c4c(Cl)cccc4Cl)c(NC(=O)NC(C)(C)C)nc3n2)CC1`, the half-life in [7] is 2.69 h. The IC50 on Insulin receptor was over 50000 nM.

Consider `CC(C)(C)NC(=O)Nc1nc2nc(N)ncc2cc1-c1c(Cl)cccc1Cl`, for which the IC50 in series [1] was 1110 nM; in series [2], 130 nM; in [3] it was 630 nM; against Insulin receptor, over 50000 nM; in [6], 220 nM.

Turning to `Cc1cc(C)c(C)c(-c2cc3cnc(NCCCN4CCN(C)CC4)nc3nc2NC(=O)NC(C)(C)C)c1C`, the IC50 in [1] is over 50000 nM; in series [2], 140 nM; in series [3], 4300 nM; against Insulin receptor, over 50000 nM; in series [6], 2200 nM; in series [4], 7000 nM.

As to `CC(C)(C)NC(=O)Nc1nc2nc(N)ncc2cc1-c1ccccc1`, the IC50 in [8] was 3710 nM; in series [9] it was 5530 nM; in series [1] it was 4670 nM; against Insulin receptor, over 50000 nM; in [6], over 50000 nM.
